# Laboratory results published in patent publication US12043632B2, “6-heteroaryloxy benzimidazoles and azabenzimidazoles as JAK2 inhibitors” (Ajax Therapeutics, Inc., priority 2020, dated 2024).
# Biological target: T1, JAK2 (JH1domain-catalytic, Y1007F,Y1008F) kinase (Homo sapiens, UniProt O60674, Y1007F/Y1008F)
# T1 construct: JAK2 (JH1domain-catalytic, Y1007F,Y1008F) kinase was expressed as N-terminal fusion; made in house; host or cells: transiently transfected HEK293 cells
# Experiment: JAK2 JH1 Domain Binding Assay
# Conditions: qPCR readout
# T1 sequence (O60674 849-1124 Y1007F/Y1008F limits assumed): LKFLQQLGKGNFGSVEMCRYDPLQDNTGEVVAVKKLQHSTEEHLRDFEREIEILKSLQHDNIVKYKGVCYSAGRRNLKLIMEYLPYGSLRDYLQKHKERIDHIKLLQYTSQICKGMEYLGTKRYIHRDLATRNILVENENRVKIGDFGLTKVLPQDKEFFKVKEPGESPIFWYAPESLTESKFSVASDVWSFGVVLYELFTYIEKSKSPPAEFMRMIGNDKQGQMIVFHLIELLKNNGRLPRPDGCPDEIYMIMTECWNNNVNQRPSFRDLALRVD
row,Compound,Kd
1,"Cn1c(Nc2cc(N3CC[C@@H](O)C3)cc(C(F)(F)F)c2)nc2ncc(Oc3cnn4ccncc34)c(Cl)c21 [Example I-238, (R)-1-(3-((7-chloro-1-methyl-6-(pyrazolo[1,5-a]pyrazin-3-yloxy)-1H-imidazo[4,5-b]pyridin-2-yl)amino)-5-(trifluoromethyl)phenyl)pyrrolidin-3-ol]",< 10 nM
2,"CNc1nccn2ncc(Oc3cnc4nc(Nc5cc6c(c(C(F)(F)F)c5)C(C)(C)N(C)C6=O)n(C)c4c3C#N)c12 [Example I-240, 1-methyl-6-((4-(methylamino)pyrazolo[1,5-a]pyrazin-3-yl)oxy)-2-((1,1,2-trimethyl-3-oxo-7-(trifluoromethyl)isoindolin-5-yl)amino)-1H-imidazo[4,5-b]pyridine-7-carbonitrile]",50 to 1000 nM
3,"CNc1nccn2ncc(Oc3cnc4nc(Nc5cc(OC[C@@H]6CCCN6C)cc(C(F)(F)F)c5)n(C)c4c3Cl)c12 [Example I-241, (S)-7-chloro-1-methyl-6-((4-(methylamino)pyrazolo[1,5-a]pyrazin-3-yl)oxy)-N-(3-((1-methylpyrrolidin-2-yl)methoxy)-5-(trifluoromethyl)phenyl)-1H-imidazo[4,5-b]pyridin-2-amine]",< 10 nM
4,"CNc1nccn2ncc(Oc3cnc4nc(Nc5cc(OC[C@H]6CCCN6C)cc(C(F)(F)F)c5)n(C)c4c3Cl)c12 [Example I-242, (R)-7-chloro-1-methyl-6-((4-(methylamino)pyrazolo[1,5-a]pyrazin-3-yl)oxy)-N-(3-((1-methylpyrrolidin-2-yl)methoxy)-5-(trifluoromethyl)phenyl)-1H-imidazo[4,5-b]pyridin-2-amine]",< 10 nM
5,"CN1CCC[C@H]1COc1cc(Nc2nc3ncc(Oc4cnn5ccncc45)c(Cl)c3n2C)cc(C(F)(F)F)c1 [Example I-243, (S)-7-chloro-1-methyl-N-(3-((1-methylpyrrolidin-2-yl)methoxy)-5-(trifluoromethyl)phenyl)-6-(pyrazolo[1,5-a]pyrazin-3-yloxy)-1H-imidazo[4,5-b]pyridin-2-amine]",< 10 nM
6,"CN1CCC[C@@H]1COc1cc(Nc2nc3ncc(Oc4cnn5ccncc45)c(Cl)c3n2C)cc(C(F)(F)F)c1 [Example I-244, (R)-7-chloro-1-methyl-N-(3-((1-methylpyrrolidin-2-yl)methoxy)-5-(trifluoromethyl)phenyl)-6-(pyrazolo[1,5-a]pyrazin-3-yloxy)-1H-imidazo[4,5-b]pyridin-2-amine]",< 10 nM
7,"CNc1nccn2ncc(Oc3cnc4nc(Nc5cc(CN6CC(F)C6)cc(C(F)(F)F)c5)n(C)c4c3Cl)c12 [Example I-246, 7-chloro-N-(3-((3-fluoroazetidin-1-yl)methyl)-5-(trifluoromethyl)phenyl)-1-methyl-6-((4-(methylamino)pyrazolo[1,5-a]pyrazin-3-yl)oxy)-1H-imidazo[4,5-b]pyridin-2-amine]",10 to 50 nM
8,"CNc1nccn2ncc(Oc3cnc4nc(Nc5cc(CN6CC(OC)C6)cc(C(F)(F)F)c5)n(C)c4c3Cl)c12 [Example I-247, 7-chloro-N-(3-((3-methoxyazetidin-1-yl)methyl)-5-(trifluoromethyl)phenyl)-1-methyl-6-((4-(methylamino)pyrazolo[1,5-a]pyrazin-3-yl)oxy)-1H-imidazo[4,5-b]pyridin-2-amine]",10 to 50 nM
9,"Cn1cc(C(F)(F)F)cc(Nc2nc3ncc(Oc4cnn5ccnc(NCCN6CCOCC6)c45)c(Cl)c3n2C)c1=O [Example I-248, 3-((7-chloro-1-methyl-6-((4-((2-morpholinoethyl)amino)pyrazolo[1,5-a]pyrazin-3-yl)oxy)-1H-imidazo[4,5-b]pyridin-2-yl)amino)-1-methyl-5-(trifluoromethyl)pyridin-2(1H)-one]",< 10 nM
10,"CNc1nccn2ncc(Oc3cnc4nc(Nc5cc(CN6CC[C@H](OC)C6)cc(C(F)(F)F)c5)n(C)c4c3Cl)c12 [Example I-249, (S)-7-chloro-N-(3-((3-methoxypyrrolidin-1-yl)methyl)-5-(trifluoromethyl)phenyl)-1-methyl-6-((4-(methylamino)pyrazolo[1,5-a]pyrazin-3-yl)oxy)-1H-imidazo[4,5-b]pyridin-2-amine]",10 to 50 nM
11,"CNc1nccn2ncc(Oc3cnc4nc(Nc5cc(CN6CC[C@@H](OC)C6)cc(C(F)(F)F)c5)n(C)c4c3Cl)c12 [Example I-250, (R)-7-chloro-N-(3-((3-methoxypyrrolidin-1-yl)methyl)-5-(trifluoromethyl)phenyl)-1-methyl-6-((4-(methylamino)pyrazolo[1,5-a]pyrazin-3-yl)oxy)-1H-imidazo[4,5-b]pyridin-2-amine]",10 to 50 nM
12,"CNc1nccn2ncc(Oc3cnc4nc(Nc5cc(C(C)(C)C)n([C@H]6CCN(C)C6)n5)n(C)c4c3Cl)c12 [Example I-251, (S)—N-(5-(tert-butyl)-1-(1-methylpyrrolidin-3-yl)-1H-pyrazol-3-yl)-7-chloro-1-methyl-6-((4-(methylamino)pyrazolo[1,5-a]pyrazin-3-yl)oxy)-1H-imidazo[4,5-b]pyridin-2-amine]",< 10 nM
13,"CNc1nccn2ncc(Oc3cnc4nc(Nc5cc(C(C)(C)C)n([C@@H]6CCN(C)C6)n5)n(C)c4c3Cl)c12 [Example I-252, (R)—N-(5-(tert-butyl)-1-(1-methylpyrrolidin-3-yl)-1H-pyrazol-3-yl)-7-chloro-1-methyl-6-((4-(methylamino)pyrazolo[1,5-a]pyrazin-3-yl)oxy)-1H-imidazo[4,5-b]pyridin-2-amine]",10 to 50 nM
14,"Cc1nc(Nc2nc3ncc(Oc4cnn5ccncc45)c(Cl)c3n2C)nc(C)c1C1CCCC1 [Example I-253, 7-chloro-N-(5-cyclopentyl-4,6-dimethylpyrimidin-2-yl)-1-methyl-6-(pyrazolo[1,5-a]pyrazin-3-yloxy)-1H-imidazo[4,5-b]pyridin-2-amine]",< 10 nM
15,"CNc1nccn2ncc(Oc3cnc4nc(Nc5cc(C6CCN(C)CC6)cc(C(F)(F)F)c5)n(C)c4c3Cl)c12 [Example I-254, 7-chloro-1-methyl-6-((4-(methylamino)pyrazolo[1,5-a]pyrazin-3-yl)oxy)-N-(3-(1-methylpiperidin-4-yl)-5-(trifluoromethyl)phenyl)-1H-imidazo[4,5-b]pyridin-2-amine]",< 10 nM
16,"CNc1nccn2ncc(Oc3cnc4nc(Nc5cc(CN(C)C)cc(C(F)(F)F)c5)n(C)c4c3Cl)c12 [Example I-255, 7-chloro-N-(3-((dimethylamino)methyl)-5-(trifluoromethyl)phenyl)-1-methyl-6-((4-(methylamino)pyrazolo[1,5-a]pyrazin-3-yl)oxy)-1H-imidazo[4,5-b]pyridin-2-amine]",< 10 nM
17,"Cn1c(Nc2cc(CN3CCC3)cc(C(F)(F)F)c2)nc2ncc(Oc3cnn4ccncc34)c(Cl)c21 [Example I-256, N-(3-(azetidin-1-ylmethyl)-5-(trifluoromethyl)phenyl)-7-chloro-1-methyl-6-(pyrazolo[1,5-a]pyrazin-3-yloxy)-1H-imidazo[4,5-b]pyridin-2-amine]",< 10 nM
18,"Cn1c(Nc2cc(CN3CC(O)C3)cc(C(F)(F)F)c2)nc2ncc(Oc3cnn4ccncc34)c(Cl)c21 [Example I-258, 1-(3-((7-chloro-1-methyl-6-(pyrazolo[1,5-a]pyrazin-3-yloxy)-1H-imidazo[4,5-b]pyridin-2-yl)amino)-5-(trifluoromethyl)benzyl)azetidin-3-ol]",< 10 nM
19,"CNc1nccn2ncc(Oc3cnc4nc(Nc5cc(OC6CN(C)C6)cc(C(F)(F)F)c5)n(C)c4c3Cl)c12 [Example I-259, 7-chloro-1-methyl-6-((4-(methylamino)pyrazolo[1,5-a]pyrazin-3-yl)oxy)-N-(3-((1-methylazetidin-3-yl)oxy)-5-(trifluoromethyl)phenyl)-1H-imidazo[4,5-b]pyridin-2-amine]",10 to 50 nM
20,"Cn1cc(C(F)(F)F)cc(Nc2nc3ncc(Oc4cnc5[nH]ncc5c4)c(C#N)c3n2C)c1=O [Example I-260, 6-((1H-pyrazolo[3,4-b]pyridin-5-yl)oxy)-1-methyl-2-((1-methyl-2-oxo-5-(trifluoromethyl)-1,2-dihydropyridin-3-yl)amino)-1H-imidazo[4,5-b]pyridine-7-carbonitrile]",< 10 nM
21,"Cn1cc(C(F)(F)F)cc(Nc2nc3ncc(Oc4cnc5[nH]ncc5c4)c(Cl)c3n2C)c1=O [Example I-261, 3-((6-((1H-pyrazolo[3,4-b]pyridin-5-yl)oxy)-7-chloro-1-methyl-1H-imidazo[4,5-b]pyridin-2-yl)amino)-1-methyl-5-(trifluoromethyl)pyridin-2(1H)-one]",< 10 nM
22,"CNc1nccn2ncc(Oc3cnc4nc(Nc5cc(CN6CCC6)cc(C(F)(F)F)c5)n(C)c4c3Cl)c12 [Example I-263, N-(3-(azetidin-1-ylmethyl)-5-(trifluoromethyl)phenyl)-7-chloro-1-methyl-6-((4-(methylamino)pyrazolo[1,5-a]pyrazin-3-yl)oxy)-1H-imidazo[4,5-b]pyridin-2-amine]",< 10 nM
23,"CNc1nccn2ncc(Oc3cnc4nc(Nc5cc(CN6CC(O)C6)cc(C(F)(F)F)c5)n(C)c4c3Cl)c12 [Example I-264, 1-(3-((7-chloro-1-methyl-6-((4-(methylamino)pyrazolo[1,5-a]pyrazin-3-yl)oxy)-1H-imidazo[4,5-b]pyridin-2-yl)amino)-5-(trifluoromethyl)benzyl)azetidin-3-ol]",10 to 50 nM
24,"Cn1cc(C(F)(F)F)cc(Nc2nc3ncc(Oc4cnc5[nH]ccc5c4)c(C#N)c3n2C)c1=O [Example I-265, 6-((1H-pyrrolo[2,3-b]pyridin-5-yl)oxy)-1-methyl-2-((1-methyl-2-oxo-5-(trifluoromethyl)-1,2-dihydropyridin-3-yl)amino)-1H-imidazo[4,5-b]pyridine-7-carbonitrile]",< 10 nM
25,"Cn1c(F)c(C2CC2)cc(Nc2nc3ncc(Oc4cnn5ccncc45)c(Cl)c3n2C)c1=O [Example I-266, 3-((7-chloro-1-methyl-6-(pyrazolo[1,5-a]pyrazin-3-yloxy)-1H-imidazo[4,5-b]pyridin-2-yl)amino)-5-cyclopropyl-6-fluoro-1-methylpyridin-2(1H)-one]",< 10 nM
26,"Cc1nc(Nc2nc3ncc(Oc4cnn5ccncc45)c(Cl)c3n2C)nc(C)c1N1CCC1 [Example I-268, N-(5-(azetidin-1-yl)-4,6-dimethylpyrimidin-2-yl)-7-chloro-1-methyl-6-(pyrazolo[1,5-a]pyrazin-3-yloxy)-1H-imidazo[4,5-b]pyridin-2-amine]",50 to 1000 nM
